# “Also recorded” adds a separate entry of the source.
# Tests used:
# [1] = test system: lysis of the fibrin clot in hemophilia-A plasma; assay: Coagulation-Lysis test in turbidimetry with intrinsic activators instead of FXIa; type: biochemical, human; details: all FVIII concentrations tested, 48 nM GEG, 290 nM silica, TF 0.5 pM
# Description: The intrinsic activators in Stago reagents are ethylene glycol gallate at 23 mg/L (STA-Cephascreen) and silica at 20 g/L (STA-PTT analyzer).
# As was done for the implementation of a viscoelastic method, turbidimetry tests were performed with a hemophilia-A patient from each group, overloaded with 0, 2, 20, 100% of Factor VIII (FVIII-Advate®). The coagulation reaction was initiated with ethylene glycol gallate (GEG) from 48 to 190 nM final test or with silica from 145 to 580 nM final test, without modifying the concentration of tissue factor which was kept at 0.5 pM final test for the two activators. These activators were added independently into the reagent under the same reference conditions as FXIa.
# The aim is to determine the maximum difference in tolerance observed in parameters DOD t1, DOD t2, and TL, between FXIa and the intrinsic activators.
# [2] = test system: lysis of the fibrin clot in hemophilia-A plasma; assay: Coagulation-Lysis test (turbidimetric, DOD t1 750 sec / t2 1400 sec) on hemophilia-A plasmas; type: biochemical, human
# Description: Dynamic measurement of the formation and degradation of the fibrin clot is carried out on a set of samples. The test, called the “Coagulation-Lysis” test, is a turbidimetric, automated, encompassing test for measuring the formation and lysis of the fibrin clot. For the analysis, the invention takes advantage of only the “lysis” part of the fibrin clot formation and lysis curve. The test is performed by mixing the plasma sample, undiluted, with an intermediate reagent containing a very low concentration of tissue factor (TF), phospholipids (PPL), plasminogen activator (tPA), and activator of the intrinsic pathway, preferably factor XIa (FXIa). After incubating the mixture, the calcium reagent triggers the generation of thrombin and the formation of the fibrin clot which quickly begins to be degraded by the tPA (tissue plasminogen activator).
# According to one embodiment, TF (tissue factor), PPL (phospholipids), FXIa, and tPA (tissue plasminogen activator) are mixed at the following concentrations: 0.5 pM, 4 μM, 100 PM and 0.13 μg/mL final test.
# The undiluted plasma sample, preferably 200 μL, is mixed with the intermediate reagent, preferably 50 μL.
# Next is a step of incubating the mixture at 37° C. then adding the calcium ion-based triggering reagent to the mixture (FIG. 1), preferably 50 μL in 102 mM final reagent (17 mM final test), to initiate the thrombin generation and fibrin clot formation (FIG. 1).
# Then, the change in optical density is read (FIG. 1) dynamically (every 2 seconds) at a single wavelength between 350 and 800 nm, preferably at 540 nm and preferably for a duration of 1986 seconds (33 minutes).
# In the context of this experimental section, the parameters or steps which were specifically used or carried out to obtain the presented results are as follows: • a. TF (tissue factor) and PPL (phospholipids) are mixed with an activator of the intrinsic pathway, FXIa, and tPA (tissue plasminogen activator), at the following concentrations: 0.5 pM, 4 μM, 100 pM, and 0.13 μg/mL final test. • b. The mixture is incubated at 37° C. then the calcium ion-based triggering reagent is added to the mixture, 50 μL in 102 mM final reagent (17 mM final test), to initiate formation of the fibrin clot. • c. The change in optical density is read dynamically (every 2 seconds) at a single wavelength, at 540 nm and for a duration of 1986 seconds (33 minutes). • d. The database is composed of all the deltas of the optical density (DOD) at the different measurement times and for each of the method parameters (Tmax; T09D—90% of the max DOD; TL—50% of the max DOD—max DOD is a measure of optical density). • e. […] This database is used as a training database which is trained on at least 70% of the overloaded samples selected randomly, and as a test database for the remaining overloaded samples (30%), then as a validation database for the patient samples.
# The classification group is determined using the two DOD (delta optical density) parameters. For the turbidimetric method used, the times are defined within the ranges of [700-900] sec for time t1 and [1100-1400] sec for time t2. Preferably, time t1 was defined at 750 sec and time t2 was defined at 1400 sec. More precisely, the results shown in the Figures were obtained with t1=750 sec and t2=1400 sec. These parameters were selected in accordance with the method for the optimal choice or verification of these parameters, explained in this description. […] The range for time t2 was defined in combination with the results obtained at time t1.
# As we did for the implementation of a viscoelastic method, we carried out turbidimetry tests where a hemophilia-A patient from each group is overloaded with different concentrations of therapeutic molecules of interest.
# We wanted to test this type of molecule (below and FIG. 24) at concentrations of 0, 3, 15, and 30 μg/mL (Nougier et al. 2020) compared to the reference FVIII treatment (Advate®) at 0, 2, 20, and 100%. […]
# [3] = at 15 mg/kg; cited from earlier work
# [4] = test system: inhibitor (antibodies directed against FIX); assay: Residual titer of FIX after neutralization by the inhibitor in hemophilia-B plasma; type: biochemical, human; details: 40% Rixubis®, 30 minutes of incubation at 37° C.
# Description: For certain hemophilia patients, the presence of inhibitors justifies the use of emicizumab.
molecule,measurement,setting,value
"O=C(OCCO)c1cc(O)c(O)c(O)c1 [GEG, ethylene glycol gallate]","maximum deviation for parameters DOD t1, DOD t2 and TL compared to the reference method with FXIa",[1]; group 1,−9%
same,"maximum deviation for parameters DOD t1, DOD t2 and TL compared to the reference method with FXIa",[1]; group 2,+3%
same,"maximum deviation for parameters DOD t1, DOD t2 and TL compared to the reference method with FXIa",[1]; group 3,+8%
NC[C@H]1CC[C@H](C(=O)O)CC1 [tranexamic acid],lysis kinetics of a fibrin clot,"[2]; TXA (1 μg/mL, FIG. 7) in addition to maintenance therapy / missing factor FVIII, listed as TXA",becomes slower; also recorded: reducing lysis
same,classification group after treatment adjustment,"[2]; group 3 patients (shortened lysis time), TXA added, FIG. 7",move these patients into group 2
same,DOD (delta optical density) at time t2 compared with DOD at time t1,[2]; plasma concentration of 5 μg/mL of tranexamic acid in the sample,identical
same,plasma concentration,[3],2000 ng/mL
"FXIII: Factor XIII or Catridecacog (NovoThirteen® NovoNordisk), activated by thrombin, stabilizes the clot",DOD t2 parameter,"[2]; FXIII (NovoThirteen®) mainly in combination with FVIII, patients in the three groups",increases
same,resistance to lysis,"[2]; FXIII in combination with FVIII, patients from the three groups",increases the resistance to lysis
same,change of classification group,"[2]; hemophilia-A patient in group 3, 20% FVIII and 170% FXIII:Ag",moves from group 3 to group 2
Rixubis®: FIX molecule (Takeda) used as replacement molecule for hemophilia B,residual titer of FIX after neutralization,[4]; patient B14,1%
same,residual titer of FIX after neutralization,[4]; patient B15,21%
"emicizumab: commercial bispecific antibody mimicking FVIII by forming a complex with activated Factor IX and Factor X (antibody, chains of the INN, looked up, V domains shown) VH: QVQLVQSGSELKKPGASVKVSCKASGYTFTDNNMDWVRQAPGQGLEWMGDINTRSGGSIYNEEFQDRVIMTVDKSTDTAYMELSSLRSEDTATYHCARRKSYGYYLDEWGEGTLVTVSS VL: DIQMTQSPSSLSASVGDRVTITCKASRNIERQLAWYQQKPGQAPELLIYQASRKESGVPDRFSGSRYGTDFTLTISSLQPEDIATYYCQQYSDPPLTFGGGTKVEIK VH2: QVQLVESGGGLVQPGGSLRLSCAASGFTFSYYDIQWVRQAPGKGLEWVSSISPSGQSTYYRREVKGRFTISRDNSKNTLYLQMNSLRAEDTAVYYCARRTGREYGGGWYFDYWGQGTLVTVSS VL2: DIQMTQSPSSLSASVGDRVTITCKASRNIERQLAWYQQKPGQAPELLIYQASRKESGVPDRFSGSRYGTDFTLTISSLQPEDIATYYCQQYSDPPLTFGGGTKVEIK",classification of patient in group 2 versus group 3,[2]; at 3 μg/mL emicizumab,overlap in classification
same,change in the group of overloaded hemophiliacs,"[2]; emicizumab overload 0, 3, 15, 30 μg/mL",No change
same,change to DOD t1,"[2]; emicizumab overload 0, 3, 15, 30 μg/mL, regardless of the patient groups",little change
same,DOD t2,"[2]; groups 1 and 2, up to 15 μg/mL of emicizumab",increased
same,change in parameters DOD t1 and DOD t2,"[2]; patient in group 3, emicizumab overload",little change in parameters
same,resistance to lysis,"[2]; patients in groups 1 and 2, emicizumab overload",increasing the resistance to lysis

# — patent US20250138031A1, “IN VITRO MEASUREMENT OF THE LYSIS OF A FIBRIN CLOT” (DIAGNOSTICA STAGO, priority 2021, published 2025)
